The values below come from patent publication US9345703B2, “Kappa opioid receptor effectors and uses thereof” (University of Kansas, priority 2011, dated 2016).

For orientation: Ki means the equilibrium dissociation constant of an inhibitor or competing ligand from its target.

For series [1], the system named is Fa2N-4 immortalized human hepatocytes. Briefly: Hepatocyte toxicity. The note with it: read-out: LC50; Fa2N-4 hepatocytes.
Series [2] has as its target DAT (Homo sapiens, UniProt Q01959). The series is described as follows: PDSP radioligand binding assay. The note with it: Table 10. The protocol:
The broader selectivity of compound 1{3} was tested against additional targets and basic pharmacological properties were assessed. […] The compound was initially screened in radioligand binding assays at a constant concentration (10 μM) to identify possible activity of the compound. Results showing significant activity in the initial screen were selected for Ki determinations.
As a representative of the Chemotype II series, the MLPCN probe molecule 2{8} was subjected to a binding assay panel of 44 GPCR and other molecular targets by the Pyschoactive Drug Screening Program (PDSP) (Table 10). The compound was initially screened in a radioligand binding assay at a constant concentration (10 μM) to identify possible activity of the compound. Results showing significant activity in the initial screen were selected for Ki determinations.

The structures appear in SMILES notation.

Sequence of DAT (Q01959 whole entry, species assumed): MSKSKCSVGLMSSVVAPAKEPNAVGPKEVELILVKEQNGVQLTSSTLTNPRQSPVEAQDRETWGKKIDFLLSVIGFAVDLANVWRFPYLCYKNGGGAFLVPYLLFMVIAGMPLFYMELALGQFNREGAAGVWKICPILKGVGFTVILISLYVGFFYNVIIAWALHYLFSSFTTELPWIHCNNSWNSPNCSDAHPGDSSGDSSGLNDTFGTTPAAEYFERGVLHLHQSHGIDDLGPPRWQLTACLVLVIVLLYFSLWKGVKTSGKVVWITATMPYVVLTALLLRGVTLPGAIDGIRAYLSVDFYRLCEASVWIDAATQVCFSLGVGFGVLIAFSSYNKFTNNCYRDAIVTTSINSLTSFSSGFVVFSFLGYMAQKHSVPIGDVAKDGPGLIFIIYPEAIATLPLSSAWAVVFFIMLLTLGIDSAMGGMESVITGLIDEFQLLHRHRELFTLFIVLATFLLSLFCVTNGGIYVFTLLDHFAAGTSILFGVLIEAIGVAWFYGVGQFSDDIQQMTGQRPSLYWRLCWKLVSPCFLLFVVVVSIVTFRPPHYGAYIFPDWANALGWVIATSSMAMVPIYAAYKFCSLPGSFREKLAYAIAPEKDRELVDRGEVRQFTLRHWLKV

In the case of `Clc1ccc(CSc2nnc(-c3ccccn3)n2Cc2ccco2)cc1Cl` [Compound 2{8}], the CC50 in series [1] was greater than 50 µM. Besides, the inhibition constant (Ki) in series [2] is greater than 10 µM.
